Results published in US12708676B2, “Phosphate compounds for detecting neurological disorders” (Amydis, Inc., priority 2018, dated 2026).
Like-named read-outs stand apart in the source and are kept apart here.

Assays:
α-syn deposits = α-syn deposits (Homo sapiens, UniProt P37840); test: Example 9: retinal imaging of Line 61 Parkinson's Disease Tg mouse model; format: in vivo
Source text: Two transgenic mouse models of Parkinson's Disease (D-line and Line 61) were examined for retinal α-syn deposits. The models selected produce α-syn deposition in the brain, but to date production in the retina had not been determined. […] After live imaging, mice were sacrificed, and the brain and retina were harvested for immunofluorescence and biochemistry.
Accordingly, Line 61 model manifest retinal α-syn in ~30% of mice and was useful in showing the utility of the disclosed compounds. […] Brain tissue was extracted post-mortem from mice after the last imaging session and stained with DAPI and a SYN1 antibody confirming the presence of α-syn in the Line 61 Mouse brain.
To confirm objects detected in vivo were α-syn, retinal tissue was extracted post-mortem from mice after the last imaging session and stained with DAPI and a SYN1 antibody (FIG. 11).

[1] = Rabbit pharmacokinetics of Compound 9, Study 1 (retina, brain, blood); format: in vivo; settings: for concentration at 15 min / concentration at 30 min / concentration at 60 min: Study 1, 30 mg Compound 9 injected
Method: (§1) Compound 9 was injected into rabbits as a solution in 0.1 M phosphate buffer, pH 7.4 such that rabbits received either 30 mg of Compound 9 (Study 1) or 28 mg of Compound 9 (Study 2). The purpose of these studies was to confirm that Compound 9 could easily be converted into Compound 7 in vivo.
Study 1: Rabbits received a 1.5 mL injection of a 20 mg/mL solution of Compound 9 in 0.1 M phosphate buffer, pH 7.4. Rabbits were sacrificed at the specified time points (N=3 per time point) in the tables below and the average concentration of Compound 9 and Compound 7 was determined in the retina (Table 3), brain (Table 4) and blood (Table 5).

Aβ40 [2] = test: Example 8: in vivo retinal imaging and ex vivo IHC of APPSwDI, PSAPP and wild type mice; design: species or system mouse; settings: PSAPP mouse
Aβ40 [3] = target: Aβ40 (Homo sapiens, UniProt P05067, D694N/E693Q); test: as above; design: species or system mouse; settings: APPSwDI mouse
aggregated Aβ = aggregated Aβ (Homo sapiens, UniProt P05067); test: Fluorescent detection of Aβ in vitro; format: binding
[4] = Rabbit pharmacokinetics of Compound 9, Study 2 (retina, brain, blood/plasma); format: in vivo; settings: rabbit
Method: as §1
Study 2: The purpose of this study was to determine if higher concentrations of Compound 9 and/or Compound 7 was present at earlier time points in the tissues specified. Rabbits received a 1.4 mL injection of a 20 mg/mL solution of Compound 9 in 0.1 M phosphate buffer, pH 7.4. Blood was collected from rabbits (N=6) two minutes after receiving Compound 9 to determine the blood concentration at this time point (Table 8). Rabbits were then sacrificed at the specified time points (N=3 per time point) in the tables below and the average concentrations of Compound 9 and Compound 7 were determined in the retina (Table 6), brain (Table 7) and blood (Table 8).

Aβ plaques = Aβ plaques (Homo sapiens, UniProt P05067); test: Example 7: ex vivo staining of human Alzheimer's disease tissue, co-localization with 6E10
[5] = target: amyloid deposits associated with CAA (Homo sapiens, UniProt P05067); test: Example 8: ex vivo staining of human CAA brain tissue; format: binding
Source text: Post-mortem brain tissue from patients diagnosed with CAA were examined to de-risk the translation from the limited robust preclinical animal models to humans. This study was designed to understand the fundamental basis of fluorescently detecting amyloids using human tissue. […] Human CAA brain tissue and healthy control brain tissue was acquired (University of California, San Diego, CA). […] All CAA patients were female and ranged in age from 70-93 years. Control brains were obtained from cognitively normal patients that ranged in age from 82-94 years from both male and female donors.

prion deposits = prion deposits (Mus musculus, UniProt P04925); format: in vivo; settings: administered as Compound 10
Sequence of prion deposits (P04925 23-230 limits assumed): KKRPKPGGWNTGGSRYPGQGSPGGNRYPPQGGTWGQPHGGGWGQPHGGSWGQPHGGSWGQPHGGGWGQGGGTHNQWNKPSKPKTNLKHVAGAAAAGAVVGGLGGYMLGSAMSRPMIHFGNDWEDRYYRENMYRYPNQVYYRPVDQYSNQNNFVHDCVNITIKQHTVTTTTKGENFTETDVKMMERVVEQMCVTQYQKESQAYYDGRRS

[6] = blood, other: injection (site not specified), read-out: Avg Conc., blood
[7] = retina, other: injection (kind of injection not stated), read-out: Avg Conc., retina
[8] = 15 minutes after iv Compound 10
[9] = labelling from in vivo injection of Compound 10
[10] = brain, other: injection (site or type of injection not stated), Study 2, 28 mg Compound 9 injected, read-out: Avg Conc., brain
[11] = plasma, other: injection (site not specified), Study 2, 28 mg Compound 9 injected, read-out: Avg Conc., plasma
[12] = retina, other: injection (site not stated), Study 2, 28 mg Compound 9 injected, read-out: Avg Conc., retina

Compound: N#C/C(=C\c1ccc2cc(N3CCCCC3)ccc2c1)C(=O)NCCOCCOCCO [Compound 7, (E)-2-cyano-N-(2-(2-(2-hydroxyethoxy)ethoxy)ethyl)-3-(6-(piperidin-1-yl)naphthalen-2-yl)acrylamide]
- Specificity for α-syn deposits (α-syn deposits; Line 61 model, via administration of Compound 10): specific for α-syn deposits associated with Parkinson's Disease
- Co-localization with SYN1 (α-syn deposits; brain and retinal tissue of Tg mice): co-localizes with an anti-alpha-synuclein antibody (SYN1)
- Kp,brain by 30 minutes ([1]; 30 minutes after injection of Compound 9): significantly decreased to undetectable values
- concentration at 15 min [1, 6]: 217 ± 31.2 ng/mL
- concentration at 30 min [1, 6]: 9.41 ± 1.89 ng/mL
- concentration at 60 min [1, 6]: 2.1 ± 2.43 ng/mL
- concentration at 15 min ([1]; brain, other: injection (site not specified), read-out: Avg Conc., brain): 0.987 ± 0.273 ng/g
- Circulation time in the retina ([1]; levels significantly decreasing over an hour): relatively short
- concentration at 15 min [1, 7]: 10.1 ± 7.3 ng/g
- concentration at 30 min [1, 7]: 2.13 ± 1.71 ng/g
- concentration at 60 min [1, 7]: 0.779 ± 0.325 ng/g
- Labelling in brain sections, ex vivo IHC (Aβ40 [2]; [8]): labeling of amyloid plaques with Compound 7 and 6E10
- Co-localization with 6E10 in retina, ex vivo IHC (Aβ40 [2]; [9]): co-localization of Compound 7 with 6E10
- Labelling in brain sections, ex vivo IHC (Aβ40 [3]; [8]): amyloid deposits along a vessel labeled with Compound 7 and 6E10
- Structures labelled in retinal tissue (Aβ40 [3]; administered as Compound 10): labels both vessels and diffuse deposits in the retinal tissue
- Co-localization with 6E10 in retina, ex vivo IHC (Aβ40 [3]; [9]): co-localized with a sequence specific antibody for Aβ (6E10)
- Detection of aggregated Aβ in vitro (aggregated Aβ): demonstrated the ability to detect aggregated Aβ
- concentration at 5 min [4, 10]: 316 ± 91.6 ng/g
- concentration at 10 min [4, 10]: 68.1 ± 8.86 ng/g
- concentration at 2 min ([4]; plasma, other: injection (site not specified), Study 2, 28 mg Compound 9 injected, 2 min, read-out: Avg Conc., plasma): 1480 ± 409 ng/mL
- concentration at 5 min [4, 11]: 975 ± 317 ng/mL
- concentration at 10 min [4, 11]: 251 ± 13.9 ng/mL
- Time at which Kp,brain was highest ([4]; post-dose of Compound 9): 5 min
- Delivery past the blood brain barrier and into retinal tissue ([4]; via administration of Compound 9 diammonium salt): delivered past the blood brain barrier (BBB) and, more importantly, into retinal tissue
- concentration at 5 min [4, 12]: 682 ± 119 ng/g
- concentration at 10 min [4, 12]: 183 ± 152 ng/g
- concentration at 5 min ([4]; retina, Study 2, 28 mg Compound 9 injected, read-out: Avg Conc., retina): 682 ng/g
- Binding to Aβ plaques in human tissue (Aβ plaques; brain and retinal tissue of human Alzheimer's patients): bind to Aβ plaques in both brain and retinal tissue
- Detection of aggregated Aβ ex vivo (Aβ plaques; ex vivo, human Alzheimer's brain tissue): demonstrated the ability to detect aggregated Aβ
- Staining ([5]; healthy control human brains): absent
- Staining of amyloid deposits ([5]; human CAA brains): successfully stains amyloid deposits associated with CAA
- Labelling of retinal prion deposits in vivo (prion deposits; pre-symptomatic prion-inoculated mice): successfully labelled large objects around the optic disk and vasculature believed to be prion deposits
- Labelling of retinal prion deposits in vivo (prion deposits; terminally diseased prion mice): successfully labelled large objects around the optic disk and vasculature believed to be prion deposits
